According to ChEMBL document CHEMBL4627268, “Development of a potent and orally active activator of adenosine monophosphate-activated protein kinase (AMPK), ASP4132, as a clinical candidate for the treatment of human cancer” (Bioorg Med Chem, 2020):

Experiments:
[1] = Intrinsic clearance in human liver microsomes at 0.1 to 0.2 umol/L incubated for 30 mins in presence of NADPH by LC-MS/MS analysis; type: ADME, Microsome; conditions: read-out: CLH
[2] = AUC (0 to 24 hrs) in Sprague-Dawley rat at 1 mg/kg, iv by LC-MS/MS analysis; type: ADME, organism-based; parameters: time < 24 hr, dose 1 mg/kg, route intravenous; conditions: in vivo
[3] = Tmax in Sprague-Dawley rat at 1 mg/kg, po by LC-MS/MS analysis; type: ADME, organism-based; conditions: in vivo
[4] = Oral bioavailability in Sprague-Dawley rat at 1 mg/kg by LC-MS/MS analysis; type: ADME, organism-based; conditions: in vivo
[5] = Cmax in Sprague-Dawley rat at 1 mg/kg, po by LC-MS/MS analysis; type: ADME, organism-based; parameters: dose 1 mg/kg, route oral; conditions: in vivo
[6] = Elimination half-life in Sprague-Dawley rat at 1 mg/kg, iv by LC-MS/MS analysis; type: ADME, organism-based; conditions: in vivo, read-out: beta t1/2 (converted)
[7] = Total clearance in Sprague-Dawley rat at 1 mg/kg, iv by LC-MS/MS analysis; type: ADME, organism-based; conditions: in vivo
[8] = Volume of distribution at steady state in Sprague-Dawley rat at 1 mg/kg, iv by LC-MS/MS analysis; type: ADME, organism-based; conditions: in vivo, read-out: Vdss
[9] = AUC (0 to 24 hrs) in Sprague-Dawley rat at 1 mg/kg, po by LC-MS/MS analysis; type: ADME, organism-based; parameters: time < 24 hr, dose 1 mg/kg, route oral; conditions: in vivo
[10] = Drug metabolism in Sprague-Dawley rat hepatocytes assessed as esterase-mediated anilide hydrolysis; type: ADME, cell-based; conditions: isolated protein

CLint scaled [1] | AUC(0-t) at 24 h [2] | Tmax [3] | bioavailability [4] | Cmax [5] | half-life [6] | clearance [7] | Vd [8] | AUC(0-t) at 24 h [9] | Drug metabolism [10] | Structure (SMILES)
158 mL/min/kg | – | – | – | – | – | – | – | – | – | O=C(Nc1ccc(C(=O)N2CCN(Cc3ccc(C(F)(F)F)cc3)CC2)cc1)N1CCN(Cc2ccc(C(F)(F)F)cc2)CC1
61 mL/min/kg | 887 ng·h/mL | 1.7 h | 80% | 72 ng/mL | 3.6 h | 19 mL/min/kg | 4.6 L/kg | 705 ng·h/mL | – | COc1ccc(CN2CCC(c3ccc4[nH]c(C(=O)N5CCN(Cc6ccc(C(F)(F)F)cc6)CC5)nc4c3)CC2)cn1.Cc1ccc(S(=O)(=O)O)cc1.Cc1ccc(S(=O)(=O)O)cc1
185 mL/min/kg | – | – | – | – | – | – | – | – | – | COc1ccc(CN2CCN(C(=O)Nc3ccc(C(=O)N4CCN(Cc5ccc(C(F)(F)F)cc5)CC4)cc3)CC2)cc1
77 mL/min/kg | 123 ng·h/mL | 0.5 h | 11% | 1.9 ng/mL | 3.5 h | 137 mL/min/kg | 50.9 L/kg | 13.3 ng·h/mL | Metabolite_Detected | COc1ccc(CN2CCC(C(=O)Nc3ccc(C(=O)N4CCN(Cc5ccc(C(F)(F)F)cc5)CC4)cc3)CC2)cn1
